Measurements published in US9403866B2, “Compositions and methods for increasing telomerase activity” (Telomerase Activation Sciences, Inc., priority 2009, dated 2016).

Key:
[1] = Plasma levels and bioavailability in rats; details: male, Sprague Dawley, rat, in vivo, po, 10 mg/kg
Protocol: The plasma levels of a compound following a single intravenous and oral administration in carotid artery-cannulated male Sprague Dawley rats was determined. Plasma samples were collected and used to determine the plasma concentration of the compound and metabolites. In addition tissue samples, including whisker samples and PBMC cells were collected for telomerase activity analysis.
Carotid artery-cannulated male Sprague Dawley rats were divided into treatment groups according to Table 6. The rats were provided ad libitum SLAC-MO1 # YY080208 (Shanghai Laboratories Animal Center, Shanghai, China) throughout the in-life portion of the study with the exception of the overnight fasting period prior to oral dosing. Water was available ad libitum.
The compounds were dissolved in 2% EtOH/98% water to yield a final concentration of 2.5 mg/ml and 1 mg/ml for both intravenous and oral administration, respectively. The concentration of each compound was confirmed by HPLC analysis.
Body weights were taken on the day of dose administration. Dose volume was determined based on individual body weight taken on day of dosing.
Blood samples (approximately 250 μL) were collected via cannulae into tubes containing K2-EDTA anticoagulant and 1 mg/ml NaF at the various time points. Blood was stored on ice and then plasma separated via centrifugation (8000 rpm×6 minutes). The plasma was stored at […] until LC-MS/MS analysis.
Percentage of bioavailability was calculated.

[2] = biological target: telomerase (Homo sapiens, UniProt O14746); assay: Telomerase activation in short-term liquid culture of human bone marrow-derived CD34+ hematopoietic progenitor cells (gel-TRAP); type: cell-based; details: huCD34+ cells, 100 nM, 3 days
Sequence of telomerase (Homo sapiens, UniProt O14746) (O14746 whole entry): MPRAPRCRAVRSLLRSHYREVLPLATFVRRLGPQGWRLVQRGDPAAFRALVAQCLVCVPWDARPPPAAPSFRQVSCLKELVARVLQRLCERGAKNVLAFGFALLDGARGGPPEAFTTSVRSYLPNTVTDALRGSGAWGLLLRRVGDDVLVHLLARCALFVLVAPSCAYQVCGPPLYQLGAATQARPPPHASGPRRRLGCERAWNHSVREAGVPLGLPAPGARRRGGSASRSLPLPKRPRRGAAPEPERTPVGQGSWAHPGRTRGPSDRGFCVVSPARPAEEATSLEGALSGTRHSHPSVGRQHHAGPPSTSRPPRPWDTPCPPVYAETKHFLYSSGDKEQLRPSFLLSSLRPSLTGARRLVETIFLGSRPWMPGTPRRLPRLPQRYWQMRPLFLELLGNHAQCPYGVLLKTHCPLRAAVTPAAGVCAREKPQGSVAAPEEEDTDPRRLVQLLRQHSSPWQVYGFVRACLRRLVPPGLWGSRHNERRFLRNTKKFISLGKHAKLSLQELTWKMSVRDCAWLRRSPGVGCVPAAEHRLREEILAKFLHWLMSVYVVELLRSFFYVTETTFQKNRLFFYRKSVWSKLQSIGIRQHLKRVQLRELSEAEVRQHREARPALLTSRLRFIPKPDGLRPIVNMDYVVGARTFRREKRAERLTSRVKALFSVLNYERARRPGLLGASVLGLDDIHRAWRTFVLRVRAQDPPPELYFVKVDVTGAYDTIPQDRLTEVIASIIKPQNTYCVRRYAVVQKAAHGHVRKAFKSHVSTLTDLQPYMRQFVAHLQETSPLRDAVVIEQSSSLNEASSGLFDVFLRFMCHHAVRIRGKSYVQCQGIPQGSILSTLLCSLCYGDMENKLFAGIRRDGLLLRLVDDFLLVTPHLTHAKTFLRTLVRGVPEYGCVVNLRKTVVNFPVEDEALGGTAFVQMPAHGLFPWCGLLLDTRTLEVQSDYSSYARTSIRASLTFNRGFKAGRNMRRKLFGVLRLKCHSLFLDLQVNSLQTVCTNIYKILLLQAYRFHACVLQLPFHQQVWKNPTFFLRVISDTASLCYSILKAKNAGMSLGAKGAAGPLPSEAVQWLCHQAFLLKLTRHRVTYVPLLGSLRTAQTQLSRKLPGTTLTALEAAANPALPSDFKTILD
Protocol: Human bone marrow-derived CD34+ hematopoietic progenitor cells were obtained from a healthy donor.
Human bone marrow-derived CD34+ hematopoietic progenitor cells were grown in Iscove's Modified Dulbecco's Medium (IMDM) (Invitrogen, CA)+10% fetal bovine serum (FBS) for 3 days in the presence of compound 4 (1 uM, 100 nM, 10 nM), vehicle (1% DMSO), or nothing. Telomerase activity increased by ˜60-70% in the 100 nM compound 4 sample relative to the vehicle control (as assessed by traditional gel-TRAP assay).

[3] = biological target: T1, telomerase (Mus musculus, UniProt O70372); assay: Telomerase activity in short-term liquid culture, lineage-depleted bone marrow cells from wild type mice; type: cell-based; details: 100 nM and 1 uM, three days
T1 construct: endogenous in cells; host or cells: lineage-depleted bone marrow cells, wild-type mice
T1 sequence (O70372 1-1122): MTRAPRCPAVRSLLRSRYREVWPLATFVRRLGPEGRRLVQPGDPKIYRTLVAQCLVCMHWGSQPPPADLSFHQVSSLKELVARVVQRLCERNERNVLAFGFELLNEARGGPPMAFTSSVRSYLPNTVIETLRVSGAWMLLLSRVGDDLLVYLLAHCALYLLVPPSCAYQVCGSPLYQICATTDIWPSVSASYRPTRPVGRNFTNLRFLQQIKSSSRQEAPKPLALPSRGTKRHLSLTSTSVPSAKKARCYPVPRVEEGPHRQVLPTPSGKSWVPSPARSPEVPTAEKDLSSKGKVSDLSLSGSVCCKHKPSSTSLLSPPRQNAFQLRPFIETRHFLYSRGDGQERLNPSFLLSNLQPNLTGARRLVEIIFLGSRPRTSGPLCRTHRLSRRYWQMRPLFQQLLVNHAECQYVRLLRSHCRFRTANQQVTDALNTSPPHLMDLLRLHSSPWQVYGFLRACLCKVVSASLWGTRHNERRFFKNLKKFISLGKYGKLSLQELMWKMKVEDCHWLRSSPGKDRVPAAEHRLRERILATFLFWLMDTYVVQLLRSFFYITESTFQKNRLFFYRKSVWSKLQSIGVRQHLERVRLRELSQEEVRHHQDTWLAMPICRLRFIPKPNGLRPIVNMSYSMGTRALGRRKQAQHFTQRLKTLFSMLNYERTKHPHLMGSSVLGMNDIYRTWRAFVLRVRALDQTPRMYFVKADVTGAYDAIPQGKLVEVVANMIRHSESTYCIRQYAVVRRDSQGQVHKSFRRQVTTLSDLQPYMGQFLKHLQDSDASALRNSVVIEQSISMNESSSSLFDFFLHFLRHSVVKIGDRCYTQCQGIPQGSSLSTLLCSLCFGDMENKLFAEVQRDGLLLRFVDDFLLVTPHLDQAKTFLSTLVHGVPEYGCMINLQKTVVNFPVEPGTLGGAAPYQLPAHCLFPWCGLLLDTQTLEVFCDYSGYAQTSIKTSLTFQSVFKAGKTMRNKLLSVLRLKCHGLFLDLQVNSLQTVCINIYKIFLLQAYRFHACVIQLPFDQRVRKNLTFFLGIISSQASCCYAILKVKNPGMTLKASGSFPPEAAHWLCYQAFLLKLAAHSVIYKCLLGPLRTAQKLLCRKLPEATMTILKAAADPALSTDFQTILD
Protocol: Lineage-depleted bone marrow cells from mTERT heterozygous and wild type mice were grown in IMDM+15% FBS containing stem cell factor (Kitl), IL-3, and IL-11 for three days in the presence of compound 4 (1 uM, 100 nM, or 10 nM), vehicle (0.1% DMSO), or nothing. Telomerase activity in the wild-type cells increased by 40-50% when treated with 100 nM and 1 uM compound 4, relative to the vehicle-treated control.

[4] = tested on: Matrigel plugs; bone marrow stem/progenitor cells; assay: Administration to aging Tert (+/-) mice: hemoglobin and total RNA in Matrigel plugs, number of bone marrow stem/progenitor cells; type: in vivo, Tert (+/-) mice on a C57BL/6 background; details: 10 mg/kg/day PO (BID)
Protocol: Aging Tert (+/−) mice on a C57BL/6 background (8-9 months) were dosed with compound 4 at 10 mg/kg/day PO (BID) in 2% ethanol. Mice were pre-dosed for 1 day (Day −1). Matrigel™ was injected subcutaneously in the abdomen on Day 0, and plugs were harvested on Day 12.
One half of the plug was analyzed for telomerase activity and hemoglobin content, which is indicative of blood vessel formation (RBC cell buffer extraction, followed by M-PER extraction). The other half of the plug was processed for histology.
The Matrigel™ plug has a 1.2-fold increase in hemoglobin levels (p<0.2) n=15/group for mice treated with compound 4.
Total RNA, which reflects cell number, was increased 1.5-fold (p<0.1) n−15/group in Matrigel™ plugs after treatment with compound 4.
Bone marrow stem and progenitor cells were purified using lineage depletion magnetic sorting technology (Miltenyi MACS columns).
The number of purified bone marrow stem/progenitor cells increased 1.5-fold (p<0.1) n=6/group in mice treated with compound 4.

[5] = tested on: lung fibroblasts; assay: Long-term culture of lung fibroblasts; type: cell-based, human

CC(C)C(N)C(=O)OC1CCC23CC24CCC2(C)C(C5(C)CCC(C(C)(C)O)O5)C(O)CC2(C)C4CC(O)C3C1(C)C (stereo not drawn) [Compound 4, 2-(L)-Amino-3-methyl-butyric acid 6α,16β-dihydroxy-17-[5-(1-hydroxy-1-methyl-ethyl)-2-methyl-tetrahydro-furan-2-yl]-4,4,13,14-tetramethyl-tetradecahydro-cyclopropa[9,10]cyclopenta[a]phenanthren-3β-yl ester]
Bioavailability % F [1]: 36% | Telomerase activity increase relative to the vehicle control [2]: 60-70% | Telomerase activity increase relative to the vehicle-treated control [3]: 40-50% | Total RNA (reflects cell number) increase in Matrigel plugs ([4]; p<0.1): 1.5 fold | increase in number of purified bone marrow stem/progenitor cells ([4]; p<0.1): 1.5 fold | increase in hemoglobin levels in the Matrigel plug ([4]; p<0.2): 1.2 fold | effect in long-term culture [5]: No effect
